# According to US10757937B2, “Sulfonamides that activate ABA receptors” (The Regents of the University of California, priority 2014, dated 2020):
# Like-named read-outs stand apart in the source and are kept apart here.
# Assays:
# PYL8 = target: T1, PYL8 (Arabidopsis thaliana, UniProt Q9FGM1); assay: receptor-mediated PP2C (HAB1) inhibition in vitro assay; assay type: biochemical; conditions: for remaining activity at 25 µM: compound at 25 μM, control without agonist = 100%; for remaining activity at 50 µM: 50 uM of the test compound
# T1 construct: 6X-His; made in house; host or cells: E. coli BL21[DE3]pLysS
# T1 sequence (Q9FGM1 1-188): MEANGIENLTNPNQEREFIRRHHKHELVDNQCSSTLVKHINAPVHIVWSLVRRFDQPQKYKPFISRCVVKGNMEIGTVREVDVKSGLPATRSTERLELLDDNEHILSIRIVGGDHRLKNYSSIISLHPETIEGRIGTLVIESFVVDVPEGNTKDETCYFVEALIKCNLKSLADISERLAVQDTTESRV
# T1 sequence (Q9CAJ0 23-511 partner): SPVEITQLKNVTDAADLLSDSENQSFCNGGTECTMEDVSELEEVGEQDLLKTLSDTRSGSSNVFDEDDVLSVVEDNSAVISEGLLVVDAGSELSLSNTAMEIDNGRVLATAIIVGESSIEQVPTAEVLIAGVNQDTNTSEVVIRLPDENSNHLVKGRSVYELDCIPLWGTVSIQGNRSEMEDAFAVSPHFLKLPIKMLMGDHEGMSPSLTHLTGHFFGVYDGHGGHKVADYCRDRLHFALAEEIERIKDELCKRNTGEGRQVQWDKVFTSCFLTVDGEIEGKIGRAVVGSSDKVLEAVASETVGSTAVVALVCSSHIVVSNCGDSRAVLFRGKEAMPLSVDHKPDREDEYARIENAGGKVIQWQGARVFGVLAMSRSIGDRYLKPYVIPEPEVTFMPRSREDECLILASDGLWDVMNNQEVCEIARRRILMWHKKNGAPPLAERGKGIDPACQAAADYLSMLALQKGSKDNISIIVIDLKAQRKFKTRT
# Procedure, shortened: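 Fluorogenic readout: 4-methylumbelliferyl-phosphate hydrolysis by 50 nM GST-HAB1 plus 2:1 His-receptor; Tris-OAc pH 7.9, NaCl, 1 mM MnCl2, β-ME. Compounds at 25 μM or 50 uM single dose; IC50 from dose curves for selected compounds.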
# PYL4 = target: T2, PYL4 (Arabidopsis thaliana, UniProt O80920); assay: as above; assay type: biochemical; conditions: for remaining activity at 25 µM: compound at 25 μM, control without agonist = 100%; for remaining activity at 50 µM: 50 uM of the test compound
# T2 construct: 6X-His; made in house; host or cells: E. coli BL21[DE3]pLysS
# T2 sequence (O80920 1-207): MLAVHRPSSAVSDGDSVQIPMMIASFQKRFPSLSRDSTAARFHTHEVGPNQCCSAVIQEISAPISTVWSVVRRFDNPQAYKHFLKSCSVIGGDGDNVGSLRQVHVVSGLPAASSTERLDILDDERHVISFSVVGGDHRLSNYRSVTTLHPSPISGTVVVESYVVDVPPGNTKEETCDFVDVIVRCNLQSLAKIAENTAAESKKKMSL
# T2 sequence (Q9CAJ0 23-511 partner): T1 sequence (Q9CAJ0 23-511 partner)
# Procedure, shortened: (§1)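 Compounds, tested at 25 μM or 50 uM with ABA at 10 uM, were incubated with recombinant receptor and 50 nM GST-HAB1 (2:1 ratio) in MnCl2-containing Tris-OAc buffer, pH 7.9. Phosphatase activity was followed by 4-methylumbelliferyl-phosphate fluorescence.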
# PYL5 = target: T3, PYL5 (Arabidopsis thaliana, UniProt Q9FLB1); assay: as above; assay type: biochemical; conditions: for remaining activity at 25 µM: compound at 25 μM, control without agonist = 100%; for remaining activity at 50 µM: 50 uM of the test compound
# T3 construct: 6X-His; made in house; host or cells: E. coli BL21[DE3]pLysS
# T3 sequence (Q9FLB1 1-203): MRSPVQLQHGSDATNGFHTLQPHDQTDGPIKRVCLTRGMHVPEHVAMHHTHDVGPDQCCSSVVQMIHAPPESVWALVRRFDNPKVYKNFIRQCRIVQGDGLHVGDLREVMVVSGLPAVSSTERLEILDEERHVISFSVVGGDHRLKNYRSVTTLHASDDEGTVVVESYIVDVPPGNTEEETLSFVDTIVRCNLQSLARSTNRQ
# T3 sequence (Q9CAJ0 23-511 partner): T1 sequence (Q9CAJ0 23-511 partner)
# Procedure, shortened: as §1
# [1] = tested on: Arabidopsis seed germination and hypocotyl growth; assay: Arabidopsis seed germination and hypocotyl growth; assay type: in vivo; conditions: for minimal effective concentration: Arabidopsis thaliana; for Hypocotyl Growth Inhibition / Germination Inhibition: Germination Inhibition II, tested at 10 and 50 uM; for Hypocotyl Growth Inhibition: lowest concentration that inhibited hypocotyl growth in wells where seeds germinated; for Germination Inhibition: lowest of the two concentrations that inhibited
# Procedure, shortened: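 Wild-type seeds germinated on ½× Murashige and Skoog medium with compound at 10 and 50 uM, or in a later series at 1, 5, 10, 25 and 50 uM. Reported value is the lowest tested concentration that inhibited germination or hypocotyl growth in wells where seeds germinated.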
# [2] = Table VII, read-out: PP2C Dose Curves PYL8 (IC50)
# [3] = Table VII, read-out: PP2C Dose Curves PYL5 (IC50)
# [4] = Table VIII, tested at 10 or 50 μM, ABA at 1 μM, lowest inhibiting concentration, − = none, read-out: Germination Inhibition
# [5] = Table VIII, tested at 10 or 50 μM, lowest inhibiting concentration, − = none, read-out: Hypocotyl Growth Inhibition
# [6] = Table VII, read-out: PP2C Dose Curves PYL4 (IC50)
# [7] = Table XII-B, calculated from dose curves, read-out: PP2C Activity (IC50 in uM) PYL8
# [8] = Table XII-B, calculated from dose curves, read-out: PP2C Activity (IC50 in uM) PYL4
# [9] = Table XII-B, calculated from dose curves, read-out: PP2C Activity (IC50 in uM) PYL5
smiles,measurement,setting,value
"CC1=CC(=O)CC(C)(C)[C@@]1(O)/C=C/C(C)=C\C(=O)O [ABA, Abscisic acid, reference compound]",PP2C Activity PYL8,PYL8; ABA (10 μM),7.0
same,PP2C Activity PYL4,PYL4; ABA (10 μM),10.2
same,PP2C Activity PYL5,PYL5; ABA (10 μM),4.9
CC(C)(C(=O)NS(=O)(=O)Cc1ccc([N+](=O)[O-])cc1)c1ccccc1 [Compound 3],IC50,PYL8; [2],8.58 µM
same,remaining activity at 25 µM,PYL8,35%
same,remaining activity at 25 µM,PYL4,90%
same,IC50,PYL5; [3],29.5 µM
same,remaining activity at 25 µM,PYL5,47%
same,minimal effective concentration,[1]; [4],50 µM
same,minimal effective concentration,[1]; [5],10 µM
same,Hypocotyl Growth Inhibition,[1]; − = none,10 µM
same,Germination Inhibition,[1]; − = none,50 µM
CC(C)(C(=O)NS(=O)(=O)Cc1ccc(C#N)cc1)c1ccc(Cl)cc1 [Compound 6],IC50,PYL8; [2],26.3 µM
same,remaining activity at 25 µM,PYL8,52%
same,remaining activity at 25 µM,PYL4,90%
same,IC50,PYL5; [3],> 50 µM
same,remaining activity at 25 µM,PYL5,21%
same,minimal effective concentration,[1]; [4],50 µM
same,minimal effective concentration,[1]; [5],10 µM
same,Hypocotyl Growth Inhibition,[1]; − = none,10 µM
same,Germination Inhibition,[1]; − = none,50 µM
CC(C)(C(=O)NS(=O)(=O)Cc1ccc(C#N)cc1)c1ccc(Cl)c(Cl)c1 [Compound 7],IC50,PYL8; [2],40 µM
same,remaining activity at 25 µM,PYL8,54%
same,remaining activity at 25 µM,PYL4,90%
same,IC50,PYL5; [3],10.7 µM
same,remaining activity at 25 µM,PYL5,33%
same,minimal effective concentration,[1]; [4],50 µM
same,minimal effective concentration,[1]; [5],10 µM
same,Hypocotyl Growth Inhibition,[1]; − = none,10 µM
same,Germination Inhibition,[1]; − = none,50 µM
CC(C)(C(=O)NS(=O)(=O)Cc1ccc(C#N)cc1)c1ccc(F)cc1 [Compound 13],IC50,PYL8; [2],4.45 µM
same,remaining activity at 25 µM,PYL8,32%
same,remaining activity at 25 µM,PYL4,98%
same,IC50,PYL5; [3],11.1 µM
same,remaining activity at 25 µM,PYL5,37%
same,minimal effective concentration,"[1]; Germination Effects III, tested at 1, 5, 10, 25 and 50 uM, lowest concentration inhibiting hypocotyl growth, — = none, read-out: Growth Inhibition",5 µM
same,minimal effective concentration,"[1]; Germination Effects III, tested at 1, 5, 10, 25 and 50 uM, lowest inhibiting concentration, — = none, read-out: Germination Inhibition",10 µM
same,minimal effective concentration,[1]; [4],10 µM
same,minimal effective concentration,[1]; [5],10 µM
same,Germination Inhibition,[1]; − = none,10 µM
CC(C)(C(=O)NS(=O)(=O)Cc1ccc(C#N)cc1)c1cccc(C#N)c1 [Compound 18],IC50,PYL8; [2],18.6 µM
same,remaining activity at 25 µM,PYL8,52%
same,IC50,PYL4; [6],> 50 µM
same,remaining activity at 25 µM,PYL4,91%
same,IC50,PYL5; [3],1.95 µM
same,remaining activity at 25 µM,PYL5,12%
CCC(CC)(C(=O)NS(=O)(=O)Cc1ccc([N+](=O)[O-])cc1)c1ccccc1 [Compound 19],IC50,PYL8; [2],9.65 µM
same,remaining activity at 25 µM,PYL8,36%
same,IC50,PYL4; [6],> 50 µM
same,remaining activity at 25 µM,PYL4,86%
same,IC50,PYL5; [3],> 50 µM
same,remaining activity at 25 µM,PYL5,85%
same,minimal effective concentration,[1]; [4],10 µM
same,Germination Inhibition,[1]; − = none,10 µM
CC(C)(C(=O)NS(=O)(=O)Cc1ccc(C#N)cc1)c1ccccc1 [Compound 23],IC50,PYL8; [2],48.9 µM
same,IC50,PYL5; [3],39.6 µM
same,minimal effective concentration,[1]; [4],50 µM
same,minimal effective concentration,[1]; [5],10 µM
same,Hypocotyl Growth Inhibition,[1]; − = none,10 µM
same,Germination Inhibition,[1]; − = none,50 µM
N#Cc1ccc(CS(=O)(=O)NC(=O)C2(c3ccc(F)cc3)CCCC2)cc1 [Compound 24],IC50,PYL8; [2],6.38 µM
same,remaining activity at 25 µM,PYL8,21%
same,IC50,PYL4; [6],> 50 µM
same,remaining activity at 25 µM,PYL4,92%
same,IC50,PYL5; [3],> 50 µM
same,remaining activity at 25 µM,PYL5,99%
same,minimal effective concentration,[1]; [4],10 µM
same,Germination Inhibition,[1]; − = none,10 µM
N#Cc1ccc(CS(=O)(=O)NC(=O)C2(c3ccccc3F)CCCC2)cc1 [Compound 25],IC50,PYL8; [2],12.6 µM
same,remaining activity at 25 µM,PYL8,37%
same,remaining activity at 25 µM,PYL4,94%
same,remaining activity at 25 µM,PYL5,102%
same,minimal effective concentration,[1]; [4],50 µM
same,minimal effective concentration,[1]; [5],10 µM
same,Hypocotyl Growth Inhibition,[1]; − = none,10 µM
same,Germination Inhibition,[1]; − = none,50 µM
N#Cc1ccc(CS(=O)(=O)NC(=O)C2(c3cccc(C#N)c3)CC2)cc1 [Compound 50],IC50,PYL8; [2],8.39 µM
same,remaining activity at 25 µM,PYL8,36%
same,IC50,PYL4; [6],> 50 µM
same,remaining activity at 25 µM,PYL4,67%
same,IC50,PYL5; [3],0.39 µM
same,remaining activity at 25 µM,PYL5,7%
same,PYL5 agonist potency and selectivity,PYL5; compounds with cyclopropyl rings at alpha carbon,potent and relatively selective PYL5 agonists
O=C(NS(=O)(=O)Cc1ccc([N+](=O)[O-])cc1)C1(c2ccccc2)CCCCC1 [Compound 63],remaining activity at 50 µM,PYL8,96.6%
same,IC50,PYL8; [7],> 50 µM
same,remaining activity at 50 µM,PYL4,103%
same,IC50,PYL4; [8],> 50 µM
same,remaining activity at 50 µM,PYL5,107%
same,IC50,PYL5; [9],> 50 µM
O=C(NS(=O)(=O)Cc1ccc(F)cc1)C1(c2ccccc2)CCCCC1 [Compound 64],remaining activity at 50 µM,PYL8,101%
same,IC50,PYL8; [7],> 50 µM
same,remaining activity at 50 µM,PYL4,105%
same,IC50,PYL4; [8],> 50 µM
same,remaining activity at 50 µM,PYL5,103%
same,IC50,PYL5; [9],> 50 µM
"N#Cc1ccc(CS(=O)(=O)NC(=O)C(c2ccccc2)c2ccccc2)cc1 [Compound 71, N-[(4-Cyanophenyl)methanesulfonyl]-2,2-diphenylacetamide]",remaining activity at 50 µM,PYL8,96.8%
same,IC50,PYL8; [7],> 50 µM
same,remaining activity at 50 µM,PYL4,93.2%
same,IC50,PYL4; [8],> 50 µM
same,remaining activity at 50 µM,PYL5,102%
same,IC50,PYL5; [9],> 50 µM
"N#Cc1ccc(CS(=O)(=O)NC(=O)C(c2ccc(F)cc2)c2ccc(F)cc2)cc1 [Compound 72, N-[(4-Cyanophenyl)methanesulfonyl]-2,2-bis(4-fluorophenyl)acetamide]",remaining activity at 50 µM,PYL8,98.5%
same,IC50,PYL8; [7],> 50 µM
same,remaining activity at 50 µM,PYL4,90.1%
same,IC50,PYL4; [8],> 50 µM
same,remaining activity at 50 µM,PYL5,102%
same,IC50,PYL5; [9],> 50 µM
"N#Cc1ccc(CS(=O)(=O)NC(=O)C(C2CCCCC2)C2CCCCC2)cc1 [Compound 73, N-[(4-Cyanophenyl)methanesulfonyl]-2,2-cyclohexylacetamide]",remaining activity at 50 µM,PYL8,66.1%
same,IC50,PYL8; [7],> 50 µM
same,remaining activity at 50 µM,PYL4,98.2%
same,IC50,PYL4; [8],> 50 µM
same,remaining activity at 50 µM,PYL5,110%
same,IC50,PYL5; [9],> 50 µM
